Laboratory results reported in patent publication US9409893B2, “Heteroaryl derivatives and uses thereof” (Jacobus Pharmaceutical Company, Inc., priority 2012, dated 2016).
Structures can show the parent of a compound that is named as a salt. Where two headings read alike, the source gives them in different places.

Legend:
[1] = tested on: P. falciparum strain W2; experiment: [3H]-hypoxanthine growth inhibition assay, P. falciparum W2; format: cell-based; conditions: Plasmodium falciparum
Experimental: (§1) The potential for antimalarial activity against Plasmodium falciparum was determined by measuring the incorporation of tritiated hypoxanthine into parasitized red blood cells.
(§2) Stock solutions of the test compounds and the reference drug chloroquine (CQ) (Sigma Chemicals C-6628, Lot #059H0919) were prepared in silanized glass vials with AquaSil™ (Pierce, USA) to minimize absorption of the compounds to glassware. All test compounds were dissolved in DMSO (Sigma Cat No. #D8418) to 1 mM concentration, whereas CQ was dissolved in 50% methanol at a concentration of 1.6 mg/ml (base). Stock solutions were stored at −20° C.
(§3) The P. falciparum laboratory adapted strains utilized in this project (Table 1) were in vitro cultured and routinely maintained in RPMI-1640-LPLF complete medium, which contained low concentrations of para-amino benzoic acid (0.0005 mg/L) and folic acid (0.01 mg/L).
(§4) The low concentration of folic acid in RPMI-1640-LPLF prevents inhibition of the compound if its activity targets the parasite's folate metabolic pathway. Parasites were cultured in human red blood cells (RBCs) in vitro at 37° C. in special gas mixture (5% O2, 5% CO2 and 90% N2) as described Trager and Jensen (1979 Science 193:673-675).
(§5) Base cultivation medium consisted of 10.4 g/L RPMI-1640-LPLF powder (Gibco BRL), 5.97 g/L HEPES buffer (MP Biomedicals, USA), 2.0 g/L D-glucose (BDH chemicals, Australia), 0.05 g/L hypoxanthine (Sigma, USA) and 40 mg/L gentamycin (Pfizer, Australia). The pH of the medium was adjusted to 6.9 and the solution was filtered using 0.2 μm pore size (AcroCap, Gelman Science, USA). Complete medium was prepared by adding sodium bicarbonate solution (final concentration, 0.21%) and drug-free heat-inactivated human plasma, pooled from various blood types, obtained from the Australian Red Cross Blood Service (Brisbane) (final concentration, 10%) to the base RPMI-1640-LPLF. For [^3H]-hypoxanthine inhibition growth assay, RPMI-1640-LPLF complete medium which lacked [^3H]-hypoxanthine ([^3H]-RPMI-1640-LPLF) was used to prevent uptake of hypoxanthine by parasites, as radioactive hypoxanthine uptake is measured as a surrogate marker of growth. All complete medium was used within three days of preparation. See DE (Para) SOP 002 for methodology.
(§6) Red blood cells (RBC) were required for P. falciparum parasites to proliferate in vitro. 0 (Rh+) type blood was obtained from the Australian Red Cross Blood Service. The RBC were washed twice in phosphate-buffered saline (PBS) and once in [^3H]-RPMI-1640-LPLF complete medium by centrifugation at 1,500×g for 5 min. Following the final wash, the haematocrit was measured as the percent of RBC to total culture volume. The haematocrit was adjusted to 50% by removing or adding [^3H]-RPMI-LPLF complete medium. See DE (Para) SOP 003 for methodology.
(§7) All P. falciparum strains were grown in RPMI-1640-LPLF complete medium at 4% haematocrit and 1% to 8% parasitaemia at 37° C. in sealed flasks in a gas mixture of 5% O2, 5% CO2 and 90% N2 (BOC Gases, Brisbane, Australia). For drug susceptibility assays cultures were routinely synchronized when the majority of parasites (>85%) were at early trophozoite (ring) stage. Synchronization involved removing the more mature erythrocytic parasite stages by lysis, resulting in the retention only of early trophozoite (ring) stages. Synchronization was performed by re-suspending the infected red blood cell (iRBC) pellet in 5 to 10 times its volume of 5% D-sorbitol (Bacto Laboratories Pty. Ltd., Australia) for 5 min (Lambros and Vanderberg, 1979 J Parasitol 65: 418-420). The mixture was centrifuged (1,500 rpm for 5 min) and the supernatant removed. The iRBC were washed twice using PBS buffer and once using [^3H]-RPMI-LPLF plain medium. Following synchronization, a new culture was prepared with an initial parasitaemia of 1% in RPMI-LPLF complete medium. See DE (Para) SOP 008 for methodology.

[2] = tested on: P. falciparum strain D6; experiment: [3H]-hypoxanthine growth inhibition assay, P. falciparum D6; format: cell-based; conditions: Plasmodium falciparum
Experimental: as §1, §2, §3, §4, §5, §6, §7

[3] = P. falciparum W2 (resistant to chloroquine and pyrimethamine), [3H]-hypoxanthine incorporation, read-out: W2 IC50
[4] = P. falciparum D6 (sensitive to chloroquine and pyrimethamine), [3H]-hypoxanthine incorporation, read-out: D6 IC50

Compound: Cc1ccc(-c2cc(C(C)(C)C)cc(CNC(C)(C)C)c2O)cn1 [Example 30, 4-(tert-Butyl)-2-((tert-butylamino)methyl)-6-(6-methylpyridin-3-yl)phenol dihydrochloride]
- IC50 ([1]; W2, read-out: W2 IC50): 42 nM
- IC50 ([2]; D6, read-out: D6 IC50): 67 nM

Compound: CC(C)(C)NCc1cc(C(C)(C)C)cc(-c2ncccc2C(F)(F)F)c1O [Example 31, 4-(tert-Butyl)-2-((tert-butylamino)methyl)-6-(3-(trifluoromethyl)pyridin-2-yl)phenol 1.7hydrochloride]
- IC50 [1, 3]: 2270 nM
- IC50 [2, 4]: 5480 nM

Compound: CC(C)(C)NCc1cc(C(C)(C)C)cc(-c2cncc3ccccc23)c1O [Example 13, 4-(tert-Butyl)-2-((tert-butylamino)methyl)-6-(isoquinolin-4-yl)phenol dihydrochloride]
- IC50 ([1]; W2, read-out: W2 IC50): 85 nM
- IC50 ([2]; D6, read-out: D6 IC50): 73 nM

Compound: CC(C)(C)NCc1cc(-c2cccnc2)cc(-c2cccnc2)c1O [Example 37, 2-((tert-Butylamino)methyl)-4,6-di(pyridin-3-yl)phenol]
- IC50 [1, 3]: 5000 nM
- IC50 [2, 4]: 5000 nM

Compound: CC(C)(C)NCc1cc(-c2ccc(Cl)cc2)nc(-c2ccc(C(F)(F)F)nc2)c1O [Example 74, 4-((tert-Butylamino)methyl)-6-(4-chlorophenyl)-6′-(trifluoromethyl)-[2,3′-bipyridin]-3-ol 1.1hydrochloride]
- IC50 [1, 3]: 23 nM
- IC50 [2, 4]: 54 nM

Compound: CC(=O)N1CCN(Cc2cc(C(C)(C)C)cc(-c3ccc(C(F)(F)F)nc3)c2O)CC1 [Example 53, 1-(4-(5-(tert-Butyl)-2-hydroxy-3-(6-(trifluoromethyl)pyridin-3-yl)benzyl)piperazin-1-yl)ethanone hydrochloride]
- IC50 [1, 3]: 2290 nM
- IC50 [2, 4]: 3660 nM

Compound: CC(C)(C)NCc1cc(C(C)(C)C)cc(-c2ccc3ncccc3c2)c1O [Example 5, 4-(tert-Butyl)-2-((tert-butylamino)methyl)-6-(quinolin-6-yl)phenol dihydrochloride]
- IC50 ([1]; W2, read-out: W2 IC50): 25 nM
- IC50 ([2]; D6, read-out: D6 IC50): 37 nM

Compound: CC(C)(C)NCc1cc(C(C)(C)C)cc(-c2cnc3ccccc3c2)c1O [Example 3, 4-(tert-Butyl)-2-((tert-butylamino)methyl)-6-(quinolin-3-yl)phenol dihydrochloride]
- IC50 ([1]; W2, read-out: W2 IC50): 22 nM
- IC50 ([2]; D6, read-out: D6 IC50): 26 nM

Compound: COc1cc(-c2cc(C(C)(C)C)cc(CNC(C)(C)C)c2O)ccn1 [Example 16, 4-(tert-Butyl)-2-((tert-butylamino)methyl)-6-(2-methoxypyridin-4-yl)phenol dihydrochloride]
- IC50 ([1]; W2, read-out: W2 IC50): 11 nM
- IC50 ([2]; D6, read-out: D6 IC50): 26 nM

Compound: CC(C)(C)NCc1cc(C(C)(C)C)cc(-c2cncc(C(F)(F)F)c2)c1O [Example 18, 4-(tert-Butyl)-2-((tert-butylamino)methyl)-6-(5-(trifluoromethyl)pyridin-3-yl)phenol 1.4 hydrochloride]
- IC50 [1, 3]: 12 nM
- IC50 [2, 4]: 25 nM

Compound: CC(C)(C)NCc1cc(C(C)(C)C)cc(-c2cc(C(F)(F)F)ccn2)c1O [Example 28, 4-(tert-Butyl)-2-((tert-butylamino)methyl)-6-(4-(trifluoromethyl)pyridin-2-yl)phenol hydrochloride]
- IC50 [1, 3]: 111 nM
- IC50 [2, 4]: 357 nM

Compound: Cc1ccc(-c2cc(C(C)(C)C)cc(CNC(C)(C)C)c2O)nc1 [Example 25, 4-(tert-Butyl)-2-((tert-butylamino)methyl)-6-(5-methylpyridin-2-yl)phenol dihydrochloride]
- IC50 ([1]; W2, read-out: W2 IC50): ≥ 20000 nM
- IC50 ([2]; D6, read-out: D6 IC50): ≥ 20000 nM

Compound: CC(CN)NCc1cc(C(C)(C)C)cc(-c2ccc(C(F)(F)F)nc2)c1O (centres unmarked) [Example 65, 2-(((1-Aminopropan-2-yl)amino)methyl)-4-(tert-butyl)-6-(6-(trifluoromethyl)pyridin-3-yl)phenol dihydrochloride]
- IC50 ([1]; W2, read-out: W2 IC50): 210 nM
- IC50 ([2]; D6, read-out: D6 IC50): 394 nM

Compound: CC(C)(C)NCc1cc(-c2ccc(C(F)(F)F)nc2)cc(-c2ccc(C(F)(F)F)nc2)c1O [Example 38, 2-((tert-Butylamino)methyl)-4,6-bis(6-(trifluoromethyl)pyridin-3-yl)phenol]
- IC50 [1, 3]: 5000 nM
- IC50 [2, 4]: 7000 nM

Compound: CC(C)(C)NCc1cc(C(C)(C)C)cc(-c2ccnc(C(F)(F)F)c2)c1O [Example 20, 4-(tert-Butyl)-2-((tert-butylamino)methyl)-6-(2-(trifluoromethyl)pyridin-4-yl)phenol hydrochloride]
- IC50 [1, 3]: 9 nM
- IC50 [2, 4]: 21 nM

Compound: CC(C)(C)NCc1cc(C(C)(C)C)cc(-c2ccc(F)cn2)c1O [Example 26, 4-(tert-Butyl)-2-((tert-butylamino)methyl)-6-(5-fluoropyridin-2-yl)phenol 1.35hydrochloride]
- IC50 [1, 3]: 598 nM
- IC50 [2, 4]: 1330 nM

Compound: CCN(CC)CCCNCc1cc(C(C)(C)C)cc(-c2ccc(C(F)(F)F)nc2)c1O [Example 61, 4-(tert-Butyl)-2-(((3-(diethylamino)propyl)amino)methyl)-6-(6-(trifluoromethyl)pyridin-3-yl)phenol dihydrochloride]
- IC50 ([1]; W2, read-out: W2 IC50): 32 nM
- IC50 ([2]; D6, read-out: D6 IC50): 44 nM

Compound: CC(C)(C)NCc1cc(C(C)(C)C)cc(-c2cccc3ncccc23)c1O [Example 4, 4-(tert-Butyl)-2-((tert-butylamino)methyl)-6-(quinolin-5-yl)phenol dihydrochloride]
- IC50 ([1]; W2, read-out: W2 IC50): 200 nM
- IC50 ([2]; D6, read-out: D6 IC50): 144 nM

Compound: CC(C)(C)NCc1cc(C(C)(C)C)cc(-c2ccc(Cl)nc2)c1O [Example 23, 4-(tert-Butyl)-2-((tert-butylamino)methyl)-6-(6-chloropyridin-3-yl)phenol hydrochloride]
- IC50 [1, 3]: 12 nM
- IC50 [2, 4]: 19 nM

Compound: CC(C)(C)NCc1cc(C(C)(C)C)cc(-c2cc3ccccc3s2)c1O [Example 7, 2-(Benzo[b]thiophen-2-yl)-4-(tert-butyl)-6-((tert-butylamino)methyl)phenol hydrochloride]
- IC50 [1, 3]: 9 nM
- IC50 [2, 4]: 18 nM

Compound: CC(C)(C)c1cc(CN2CCCC2)c(O)c(-c2ccc(C(F)(F)F)nc2)c1 [Example 52, 4-(tert-Butyl)-2-(pyrrolidin-1-ylmethyl)-6-(6-(trifluoromethyl)pyridin-3-yl)phenol hydrochloride]
- IC50 [1, 3]: 14 nM
- IC50 [2, 4]: 23 nM

Compound: CC(C)(C)NCc1cc(C(C)(C)C)cc(-c2ccc(C(F)(F)F)nn2)c1O [Example 56, 4-(tert-Butyl)-2-((tert-butylamino)methyl)-6-(6-(trifluoromethyl)pyridazin-3-yl)phenol hydrochloride]
- IC50 [1, 3]: 117 nM
- IC50 [2, 4]: 104 nM

Compound: CC(C)(C)NCc1cc(C(C)(C)C)cc(-c2cnc(C(F)(F)F)cn2)c1O [Example 32, 4-(tert-Butyl)-2-((tert-butylamino)methyl)-6-(5-(trifluoromethyl)pyrazin-2-yl)phenol hydrochloride]
- IC50 [1, 3]: 11 nM
- IC50 [2, 4]: 38 nM

Compound: CN1CCN(Cc2cc(C(C)(C)C)cc(-c3ccc(C(F)(F)F)nc3)c2O)CC1 [Example 50, 4-(tert-Butyl)-2-((4-methylpiperazin-1-yl)methyl)-6-(6-(trifluoromethyl)pyridin-3-yl)phenol dihydrochloride]
- IC50 ([1]; W2, read-out: W2 IC50): 160 nM
- IC50 ([2]; D6, read-out: D6 IC50): 297 nM

Compound: CC(NC(C)(C)C)c1cc(C(C)(C)C)cc(-c2ccc(C(F)(F)F)nc2)c1O (centres unmarked) [Example 73, 4-(tert-Butyl)-2-(1-(tert-butylamino)ethyl)-6-(6-(trifluoromethyl)pyridin-3-yl)phenol hydrochloride]
- IC50 [1, 3]: 2740 nM
- IC50 [2, 4]: 1860 nM
